Assay results from article PMC6437697 (Journal of Medicinal Chemistry, 2019).

What was measured:
Assay in all cases: KINOMEscan
Format in all cases: binding
Settings in all cases: read-out: % control activity remaining
[1] = target: T1, TYK2(JH1domain-catalytic) (Homo sapiens, UniProt P29597)
T1 construct: TYK2(JH1domain-catalytic); purchased Eurofins DiscoverX KINOMEscan
T1 sequence (P29597 871-1187 limits assumed): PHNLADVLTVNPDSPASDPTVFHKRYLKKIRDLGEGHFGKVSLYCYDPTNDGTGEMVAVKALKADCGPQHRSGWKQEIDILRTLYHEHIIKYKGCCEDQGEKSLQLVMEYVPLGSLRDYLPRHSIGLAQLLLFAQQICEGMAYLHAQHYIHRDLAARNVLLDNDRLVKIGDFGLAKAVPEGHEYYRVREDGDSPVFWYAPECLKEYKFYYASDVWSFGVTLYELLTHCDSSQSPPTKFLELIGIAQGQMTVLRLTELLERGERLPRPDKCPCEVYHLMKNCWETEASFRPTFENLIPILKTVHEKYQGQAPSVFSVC

[2] = target: T2, PLK1 (Homo sapiens, UniProt P53350)
T2 construct: purchased Eurofins DiscoverX KINOMEscan

[3] = target: T3, DYRK2 (Homo sapiens, UniProt Q92630)
T3 construct: purchased Eurofins DiscoverX KINOMEscan
T3 sequence (Q92630 1-601): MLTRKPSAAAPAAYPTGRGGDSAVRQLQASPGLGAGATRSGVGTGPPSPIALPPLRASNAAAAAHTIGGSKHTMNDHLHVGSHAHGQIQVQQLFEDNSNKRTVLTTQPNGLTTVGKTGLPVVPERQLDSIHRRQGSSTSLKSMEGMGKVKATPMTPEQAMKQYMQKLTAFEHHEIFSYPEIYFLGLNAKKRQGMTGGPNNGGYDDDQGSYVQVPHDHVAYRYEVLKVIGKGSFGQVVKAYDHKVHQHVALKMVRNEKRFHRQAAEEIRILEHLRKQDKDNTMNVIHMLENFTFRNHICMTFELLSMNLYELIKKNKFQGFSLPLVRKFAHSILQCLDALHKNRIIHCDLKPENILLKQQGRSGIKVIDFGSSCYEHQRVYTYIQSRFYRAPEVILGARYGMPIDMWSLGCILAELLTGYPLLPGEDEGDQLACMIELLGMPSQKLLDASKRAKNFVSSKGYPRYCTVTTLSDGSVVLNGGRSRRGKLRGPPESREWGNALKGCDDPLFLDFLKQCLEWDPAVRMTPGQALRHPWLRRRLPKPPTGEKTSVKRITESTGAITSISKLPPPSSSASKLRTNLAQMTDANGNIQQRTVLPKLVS

[4] = target: T4, EPHA7 (Homo sapiens, UniProt Q15375)
T4 construct: purchased Eurofins DiscoverX KINOMEscan

[5] = target: T5, ERBB4 (Homo sapiens, UniProt Q15303)
T5 construct: purchased Eurofins DiscoverX KINOMEscan

[6] = target: T6, FYN (Homo sapiens, UniProt P06241)
T6 construct: purchased Eurofins DiscoverX KINOMEscan

[7] = target: T7, AKT1 (Homo sapiens, UniProt P31749)
T7 construct: purchased Eurofins DiscoverX KINOMEscan

[8] = target: T8, PIK3CG (Homo sapiens, UniProt P48736)
T8 construct: purchased Eurofins DiscoverX KINOMEscan

[9] = target: T9, HASPIN (Homo sapiens, UniProt Q8TF76)
T9 construct: purchased Eurofins DiscoverX KINOMEscan
T9 sequence (Q8TF76 1-798): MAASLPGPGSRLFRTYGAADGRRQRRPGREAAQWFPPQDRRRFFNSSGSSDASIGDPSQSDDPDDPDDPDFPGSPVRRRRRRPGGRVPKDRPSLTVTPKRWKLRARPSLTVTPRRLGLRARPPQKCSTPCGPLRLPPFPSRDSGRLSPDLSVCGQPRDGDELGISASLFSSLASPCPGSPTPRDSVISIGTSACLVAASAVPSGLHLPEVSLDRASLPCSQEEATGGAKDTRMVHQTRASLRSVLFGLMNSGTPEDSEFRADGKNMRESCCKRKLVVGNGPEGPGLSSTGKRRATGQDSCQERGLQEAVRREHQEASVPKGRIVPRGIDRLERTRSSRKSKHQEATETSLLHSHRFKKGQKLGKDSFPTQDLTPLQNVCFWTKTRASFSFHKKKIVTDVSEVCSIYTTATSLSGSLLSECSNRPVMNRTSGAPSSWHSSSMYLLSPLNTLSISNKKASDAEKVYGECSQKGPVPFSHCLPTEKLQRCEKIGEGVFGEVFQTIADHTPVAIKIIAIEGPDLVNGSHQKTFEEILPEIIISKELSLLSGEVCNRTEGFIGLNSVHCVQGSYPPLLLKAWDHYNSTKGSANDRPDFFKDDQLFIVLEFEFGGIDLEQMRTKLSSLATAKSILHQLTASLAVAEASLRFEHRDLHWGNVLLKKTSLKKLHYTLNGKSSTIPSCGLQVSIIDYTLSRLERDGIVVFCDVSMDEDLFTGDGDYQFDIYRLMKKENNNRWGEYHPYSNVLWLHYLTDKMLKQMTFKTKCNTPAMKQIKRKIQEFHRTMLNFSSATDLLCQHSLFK

[10] = target: T10, CTK (Homo sapiens, UniProt P42679)
T10 construct: purchased Eurofins DiscoverX KINOMEscan
T10 sequence (P42679 1-507): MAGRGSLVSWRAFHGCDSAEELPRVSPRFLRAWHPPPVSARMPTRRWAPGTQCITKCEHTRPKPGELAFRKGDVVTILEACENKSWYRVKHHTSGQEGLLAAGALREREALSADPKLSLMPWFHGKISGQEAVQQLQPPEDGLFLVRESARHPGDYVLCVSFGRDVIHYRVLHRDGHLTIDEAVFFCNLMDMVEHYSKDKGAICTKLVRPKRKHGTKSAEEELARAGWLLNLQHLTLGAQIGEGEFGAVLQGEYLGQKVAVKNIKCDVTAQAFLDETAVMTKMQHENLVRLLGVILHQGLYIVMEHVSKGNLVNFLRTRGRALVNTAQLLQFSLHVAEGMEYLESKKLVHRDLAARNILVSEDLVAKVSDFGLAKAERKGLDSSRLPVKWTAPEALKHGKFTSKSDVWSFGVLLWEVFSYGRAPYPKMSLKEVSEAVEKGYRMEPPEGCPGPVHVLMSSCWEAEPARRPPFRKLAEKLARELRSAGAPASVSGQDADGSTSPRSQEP

T8 sequence (P48736 whole entry): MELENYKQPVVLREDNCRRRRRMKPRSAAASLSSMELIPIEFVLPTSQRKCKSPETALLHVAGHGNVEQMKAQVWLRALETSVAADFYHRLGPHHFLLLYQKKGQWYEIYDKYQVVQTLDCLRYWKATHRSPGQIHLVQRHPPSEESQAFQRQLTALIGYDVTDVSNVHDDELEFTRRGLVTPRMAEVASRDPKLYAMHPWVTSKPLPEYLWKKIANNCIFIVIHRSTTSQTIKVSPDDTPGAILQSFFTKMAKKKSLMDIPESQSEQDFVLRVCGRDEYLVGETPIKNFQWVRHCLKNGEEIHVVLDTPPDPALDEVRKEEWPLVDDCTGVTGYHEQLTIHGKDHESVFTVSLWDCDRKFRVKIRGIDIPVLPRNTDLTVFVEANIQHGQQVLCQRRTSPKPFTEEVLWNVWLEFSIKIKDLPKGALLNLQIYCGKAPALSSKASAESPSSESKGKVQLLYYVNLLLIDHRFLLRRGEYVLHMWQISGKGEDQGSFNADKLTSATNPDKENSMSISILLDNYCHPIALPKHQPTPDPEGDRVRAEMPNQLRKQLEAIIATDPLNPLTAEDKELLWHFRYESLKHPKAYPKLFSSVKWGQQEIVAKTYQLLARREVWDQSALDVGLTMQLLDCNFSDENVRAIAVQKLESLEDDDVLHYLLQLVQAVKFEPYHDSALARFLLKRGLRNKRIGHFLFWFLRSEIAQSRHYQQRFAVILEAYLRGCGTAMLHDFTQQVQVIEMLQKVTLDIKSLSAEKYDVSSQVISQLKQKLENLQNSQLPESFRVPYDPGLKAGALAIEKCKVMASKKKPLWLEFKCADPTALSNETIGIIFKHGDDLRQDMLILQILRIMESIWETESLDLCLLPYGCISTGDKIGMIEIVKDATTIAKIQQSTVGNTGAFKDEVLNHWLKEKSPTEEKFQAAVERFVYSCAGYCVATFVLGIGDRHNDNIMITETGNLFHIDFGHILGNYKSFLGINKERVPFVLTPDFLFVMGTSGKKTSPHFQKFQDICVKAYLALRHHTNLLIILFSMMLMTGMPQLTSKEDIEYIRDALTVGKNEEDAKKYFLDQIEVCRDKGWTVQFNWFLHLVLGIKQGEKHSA
T6 sequence (P06241 whole entry): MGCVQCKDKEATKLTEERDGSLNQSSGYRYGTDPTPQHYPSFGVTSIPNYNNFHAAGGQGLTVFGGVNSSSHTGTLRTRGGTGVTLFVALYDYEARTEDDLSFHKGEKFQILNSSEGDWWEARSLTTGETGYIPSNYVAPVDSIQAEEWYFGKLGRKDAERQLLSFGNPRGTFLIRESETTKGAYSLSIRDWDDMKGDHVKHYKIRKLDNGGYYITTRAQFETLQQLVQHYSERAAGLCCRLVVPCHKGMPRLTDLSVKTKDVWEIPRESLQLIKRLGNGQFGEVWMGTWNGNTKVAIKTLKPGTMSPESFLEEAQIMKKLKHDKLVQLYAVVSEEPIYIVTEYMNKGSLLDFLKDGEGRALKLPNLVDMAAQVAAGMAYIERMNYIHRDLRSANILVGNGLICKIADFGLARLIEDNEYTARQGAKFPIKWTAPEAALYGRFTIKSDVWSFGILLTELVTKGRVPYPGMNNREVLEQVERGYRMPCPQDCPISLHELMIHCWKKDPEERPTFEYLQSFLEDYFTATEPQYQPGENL
T5 sequence (Q15303 26-1308): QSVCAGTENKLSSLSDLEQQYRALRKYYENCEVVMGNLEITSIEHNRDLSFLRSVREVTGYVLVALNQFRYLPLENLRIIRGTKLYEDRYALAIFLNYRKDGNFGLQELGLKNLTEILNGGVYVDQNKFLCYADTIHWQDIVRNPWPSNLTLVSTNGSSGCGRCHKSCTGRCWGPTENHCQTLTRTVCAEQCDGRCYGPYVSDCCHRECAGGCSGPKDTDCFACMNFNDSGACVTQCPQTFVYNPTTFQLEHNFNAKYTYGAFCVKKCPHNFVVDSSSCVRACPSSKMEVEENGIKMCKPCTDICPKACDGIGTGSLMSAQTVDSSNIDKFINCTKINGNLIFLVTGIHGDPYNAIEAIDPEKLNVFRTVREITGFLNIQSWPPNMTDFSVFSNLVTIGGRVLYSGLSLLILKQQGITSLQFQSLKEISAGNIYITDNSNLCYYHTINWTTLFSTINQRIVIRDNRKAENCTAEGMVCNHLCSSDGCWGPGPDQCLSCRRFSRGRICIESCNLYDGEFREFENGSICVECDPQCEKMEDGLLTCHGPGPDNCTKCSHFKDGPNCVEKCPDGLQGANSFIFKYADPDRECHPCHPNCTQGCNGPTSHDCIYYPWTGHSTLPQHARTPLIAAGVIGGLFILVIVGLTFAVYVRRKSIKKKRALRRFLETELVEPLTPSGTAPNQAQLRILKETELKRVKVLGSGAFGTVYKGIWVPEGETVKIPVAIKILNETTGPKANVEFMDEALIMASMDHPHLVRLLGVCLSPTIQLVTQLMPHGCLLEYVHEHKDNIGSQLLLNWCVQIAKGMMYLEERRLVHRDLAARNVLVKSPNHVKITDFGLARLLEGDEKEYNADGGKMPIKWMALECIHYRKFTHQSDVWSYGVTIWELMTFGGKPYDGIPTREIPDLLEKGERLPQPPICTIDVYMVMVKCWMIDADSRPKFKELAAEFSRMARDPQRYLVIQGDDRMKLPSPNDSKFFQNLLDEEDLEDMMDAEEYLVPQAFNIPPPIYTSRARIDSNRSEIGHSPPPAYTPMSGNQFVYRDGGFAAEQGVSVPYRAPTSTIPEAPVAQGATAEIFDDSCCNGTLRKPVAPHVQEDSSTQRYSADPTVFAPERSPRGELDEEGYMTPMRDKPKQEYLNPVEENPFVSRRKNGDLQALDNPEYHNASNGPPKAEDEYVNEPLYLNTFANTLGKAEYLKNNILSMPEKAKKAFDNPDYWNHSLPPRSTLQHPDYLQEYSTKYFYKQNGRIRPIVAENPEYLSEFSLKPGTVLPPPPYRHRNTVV
T4 sequence (Q15375 28-998): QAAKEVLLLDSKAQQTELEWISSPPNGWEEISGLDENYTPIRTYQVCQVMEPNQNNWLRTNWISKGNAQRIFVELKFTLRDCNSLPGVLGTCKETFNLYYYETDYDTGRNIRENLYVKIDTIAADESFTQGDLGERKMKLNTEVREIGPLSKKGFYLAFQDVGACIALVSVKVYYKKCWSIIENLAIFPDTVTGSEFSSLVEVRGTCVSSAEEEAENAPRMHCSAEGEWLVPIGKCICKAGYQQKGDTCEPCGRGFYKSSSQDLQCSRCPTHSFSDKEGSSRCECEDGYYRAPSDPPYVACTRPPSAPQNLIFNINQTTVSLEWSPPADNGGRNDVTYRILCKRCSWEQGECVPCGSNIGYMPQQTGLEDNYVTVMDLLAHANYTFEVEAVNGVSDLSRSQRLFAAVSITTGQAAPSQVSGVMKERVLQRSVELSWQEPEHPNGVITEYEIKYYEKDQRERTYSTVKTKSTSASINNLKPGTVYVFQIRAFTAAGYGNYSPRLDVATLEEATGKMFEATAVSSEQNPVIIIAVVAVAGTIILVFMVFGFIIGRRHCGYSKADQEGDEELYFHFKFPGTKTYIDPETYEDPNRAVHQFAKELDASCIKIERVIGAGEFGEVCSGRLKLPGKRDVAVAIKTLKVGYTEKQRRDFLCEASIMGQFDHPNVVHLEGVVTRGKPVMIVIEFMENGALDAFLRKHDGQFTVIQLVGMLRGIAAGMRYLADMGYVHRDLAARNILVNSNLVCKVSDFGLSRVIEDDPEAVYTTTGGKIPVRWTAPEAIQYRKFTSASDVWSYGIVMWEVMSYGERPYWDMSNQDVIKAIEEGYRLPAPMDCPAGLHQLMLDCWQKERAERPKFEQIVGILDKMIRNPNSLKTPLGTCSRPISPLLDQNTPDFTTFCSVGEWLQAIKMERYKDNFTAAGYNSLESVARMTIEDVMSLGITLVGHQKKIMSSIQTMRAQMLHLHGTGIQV
T2 sequence (P53350 whole entry): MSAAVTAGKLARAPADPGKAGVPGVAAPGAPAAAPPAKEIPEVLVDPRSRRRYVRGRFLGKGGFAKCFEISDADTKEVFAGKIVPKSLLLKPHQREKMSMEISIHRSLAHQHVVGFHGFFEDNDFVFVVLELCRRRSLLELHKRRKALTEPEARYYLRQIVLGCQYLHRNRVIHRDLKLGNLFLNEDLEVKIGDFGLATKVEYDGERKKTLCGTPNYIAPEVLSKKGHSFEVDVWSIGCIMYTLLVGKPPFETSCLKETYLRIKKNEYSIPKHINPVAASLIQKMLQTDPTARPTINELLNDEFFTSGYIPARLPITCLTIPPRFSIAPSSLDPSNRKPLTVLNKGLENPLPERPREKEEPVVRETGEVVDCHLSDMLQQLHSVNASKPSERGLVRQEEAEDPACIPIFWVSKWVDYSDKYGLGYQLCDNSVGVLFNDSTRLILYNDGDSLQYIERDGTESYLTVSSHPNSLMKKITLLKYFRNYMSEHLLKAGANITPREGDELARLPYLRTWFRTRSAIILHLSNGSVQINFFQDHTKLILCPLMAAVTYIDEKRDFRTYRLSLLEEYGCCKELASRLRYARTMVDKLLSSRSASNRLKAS
T7 sequence (P31749 whole entry): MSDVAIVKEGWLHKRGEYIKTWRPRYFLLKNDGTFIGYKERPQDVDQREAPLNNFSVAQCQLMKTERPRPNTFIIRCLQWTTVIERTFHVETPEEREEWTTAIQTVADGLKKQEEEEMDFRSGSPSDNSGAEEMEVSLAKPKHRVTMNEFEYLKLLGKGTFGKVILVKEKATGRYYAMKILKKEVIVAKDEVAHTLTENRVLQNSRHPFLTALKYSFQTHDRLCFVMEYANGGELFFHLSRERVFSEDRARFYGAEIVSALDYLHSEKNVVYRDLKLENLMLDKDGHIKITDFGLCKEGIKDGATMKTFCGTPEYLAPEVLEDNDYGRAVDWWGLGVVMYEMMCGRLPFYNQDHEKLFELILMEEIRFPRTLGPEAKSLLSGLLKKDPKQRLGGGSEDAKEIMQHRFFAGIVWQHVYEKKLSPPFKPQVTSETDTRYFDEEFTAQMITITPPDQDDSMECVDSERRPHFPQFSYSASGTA

Row | SMILES | remaining binding at 1 µM [1] [%] | remaining binding at 1 µM [2] [%] | remaining binding at 1 µM [3] [%] | remaining binding at 1 µM [4] [%] | remaining binding at 1 µM [5] [%] | remaining binding at 1 µM [6] [%] | remaining binding at 1 µM [7] [%] | remaining binding at 1 µM [8] [%] | remaining binding at 1 µM [9] [%] | remaining binding at 1 µM [10] [%]
1 | Clc1cc(NCC2CC2)c2ncc(-c3ccc4[nH]ncc4c3)n2n1 [compound 2, 6-Chloro-N-(cyclopropylmethyl)-3-(1H-indazol-5-yl)imidazo[1,2-b]pyridazin-8-amine] | 87 | 97 | 28 | 94 | 99 | 95 | 98 | 78 | 21 | 91
2 | O=C(CN1CCOCC1)N[C@H]1CC[C@H](Nc2cc(Cl)nn3c(-c4ccc5[nH]ncc5c4)cnc23)CC1 [compound 26] | 100 | 90 | 8 | 97 | 100 | 96 | 100 | 100 | 22 | 95
3 | CN1CCC(CNc2cc(Cl)nn3c(-c4cc5nc(Nc6ccccc6)[nH]c5cc4F)cnc23)CC1 [compound 31, 6-Chloro-3-(6-fluoro-2-(phenylamino)-1H-benzo[d]imidazol-5-yl)-N-((1-methylpiperidin-4-yl)methyl)imidazo[1,2-b]pyridazin-8-amine] | 74 | 96 | 99 | 94 | 100 | 98 | 100 | 100 | 66 | 69
